{"source": "patent US10512700B2", "about": "“Radiohalide-labeled targeted diagnostics and therapeutics” (Memorial Sloan Kettering Cancer Center, priority 2014, dated 2019)", "key": {"[1]": {"experiment": "Stability in whole blood (in vitro)", "assay_type": "in vitro ADME, mouse", "protocol": "[…] […] The sample was centrifuged at 3000 RCF for 3 min at 4° C., and the supernatant collected. This procedure was repeated three times, and the combined supernatants analyzed by HPLC equipped with radioactive detector (Shimadzu, Kyoto, Japan), collecting samples every 30 sec. Radioactivity of each fraction was measured on a Wizard 2470 Automatic Gamma Counter (Perkin Elmer, Waltham, Mass.) and the blood stability was analyzed using Prism 6.0c (GraphPad Software, La Jolla, Calif.)."}, "Blood half-life": {"experiment": "Blood half-life", "assay_type": "in vivo, mouse", "conditions": "healthy athymic nude mice, tail vein", "protocol": "The blood half-life was determined by measuring the activity in serial blood samplings. […] Measurements in counts per minute were calculated as the mean % ID/g. The blood half-life was calculated using Prism 6.0c (GraphPad Software, La Jolla, Calif.).\nThe blood half-life was calculated by measuring the activity of blood samples collected at different time points p.i. […] The collected blood was weighed and counted in a WIZARD^2 automatic γ-counter (PerkinElmer, Boston, Mass.). The blood half-life was calculated using Prism 6.0c (GraphPad Software, La Jolla, Calif.) using a two-phase decay least squares fitting method and expressed as % ID/g."}, "[2]": {"system": "U251 MG tumor bearing mice", "experiment": "Biodistribution", "assay_type": "in vivo, mouse", "conditions": "C-2d, i.v., 2 h post injection", "protocol": "Biodistribution studies were conducted on female nude mice (8-10 weeks old and 20-25 g in weight, n=21) bearing U251 MG subcutaneous xenografts. The radiolabeled preparation (20-30 μCi of compound C-2d (^131I) in 200 μL of a solution 90% PBS 10% PEG300) was administrated via the lateral tail vein. The compound was allowed to circulate for 2 h post injection at which time mice were sacrificed and organs were harvested (n=3). The radioactive content in tissue of interest (blood, tumor, muscle, bone, liver, spleen, kidney, heart, lung, pancreas, brain, skin, small intestine, large intestine, stomach, tail, thyroid and feces) was measured on a Wizard 2470 Automatic Gamma Counter, and the tissue-associated activity was calculated as the mean % ID/g using the following formula: [(activity in the target organ/grams of tissue)/injected dose]×100%.\nBiodistribution studies were performed in subcutaneous U251 MG xenograft bearing athymic nude mice (n=12). Mice were divided in two groups (blocked and unblocked) and administered with C-2f (approximately 50 μCi, 45 mCi/μmol in […], 10% EtOH in 0.9% sterile saline) via tail vein injection. […] Mice were sacrificed by CO2 asphyxiation at 120 min post injection and major organs were collected, weighed, and counted in a WIZARD^2 automatic γ-counter (PerkinElmer, Boston, Mass.). The radiopharmaceutical uptake was expressed as a percentage of injected dose per gram (% ID/g) using the following formula: [(activity in the target organ/grams of tissue)/injected dose]×100%."}, "[3]": {"system": "orthotopic U251 MG tumor-bearing mice", "experiment": "Autoradiography using C-2d", "assay_type": "in vivo, mouse", "protocol": "U251 MG glioblastoma cells (5×10^4 in 2 μL of PBS) were orthotopically implanted in athymic nude mice, using a stereotaxic device, and the tumors allowed to grow for approximately 4 weeks. […] Additionally, healthy mice were also injected with 500 μCi C-2d. After 2 h of circulation time after the C-2d injection, the mice were sacrificed. Liver, tumor, muscle, and brain tissues were excised and embedded in O.C.T. compound (Sakura Finetek, Torrance, Calif.) and frozen at −20° C., and a series of 8 μm frozen sections was cut and mounted on microscope slides. To determine radiotracer distribution, digital autoradiography was performed by placing tissue sections in a film cassette against a phosphor image plate (BASMS-2325; Fujifilm) for 48 h at −20° C. Phosphor imaging plates were read at a pixel resolution of 25 μm with a Typhoon 7000IP plate reader (GE Healthcare, Piscataway, N.J.) (images not shown). After autoradiographic exposure, the same frozen sections were then used for […] staining. Areas of brain slides containing tumor tissue were identified using the H&E staining and then overlaid with the autoradiographic data (images not shown). Intensity of tumor areas and non-tumor areas were then quantified using ImageJ 1.47 u (see FIGS. 5A and 5B)."}, "[4]": {"conditions": "autoradiography, mice that received no olaparib"}}, "note": "Values joined by “and” are separate entries in the source; they are usually repeats but may differ in a detail not shown here. Equal values may be shown once."}
{"smiles": "O=C(c1ccc([131I])cc1)N1CCN(C(=O)c2cc(Cc3n[nH]c(=O)c4ccccc34)ccc2F)CC1", "note": "[C-2d (^131I)]", "values": [{"measurement": "in vitro blood stability", "setting": "[1]; mouse blood, 37° C., over 60 min", "value": "confirmed the stability of the compound"}, {"measurement": "in vitro blood stability", "setting": "[1]; over the course of 120 minutes", "value": "confirmed the stability of the compound"}, {"measurement": "alpha blood half-life", "setting": "Blood half-life", "value": 14.3, "unit": "min"}, {"measurement": "alpha blood half-life, share of phase", "setting": "Blood half-life", "value": 96.25, "unit": "%"}, {"measurement": "beta blood half-life", "setting": "Blood half-life", "value": 94.6, "unit": "min"}, {"measurement": "beta blood half-life, share of phase", "setting": "Blood half-life", "value": 3.75, "unit": "%"}, {"measurement": "weighted blood half-life", "setting": "Blood half-life; 50 μCi", "value": 17.1, "unit": "min"}, {"measurement": "% ID/g, Blood", "setting": "[2]", "value": 0.27, "unit": "% ID/g"}, {"measurement": "% ID/g, Bone", "setting": "[2]", "value": 0.07, "unit": "% ID/g"}, {"measurement": "% ID/g, Brain", "setting": "[2]", "value": "0.011±0.003 % ID/g and 0.01 % ID/g"}, {"measurement": "% ID/g, Feces", "setting": "[2]", "value": 4.34, "unit": "% ID/g"}, {"measurement": "% ID/g, Heart", "setting": "[2]", "value": 0.16, "unit": "% ID/g"}, {"measurement": "% ID/g, Kidneys", "setting": "[2]", "value": 0.61, "unit": "% ID/g"}, {"measurement": "% ID/g, Large intestine", "setting": "[2]", "value": 1.26, "unit": "% ID/g"}, {"measurement": "% ID/g, Liver", "setting": "[2]", "value": 2.34, "unit": "% ID/g"}, {"measurement": "% ID/g, Lung", "setting": "[2]", "value": 0.28, "unit": "% ID/g"}, {"measurement": "% ID/g, Muscle", "setting": "[2]", "value": "0.03±0.01 % ID/g and 0.03 % ID/g"}, {"measurement": "% ID/g, Pancreas", "setting": "[2]", "value": 0.15, "unit": "% ID/g"}, {"measurement": "% ID/g, Skin", "setting": "[2]", "value": 0.25, "unit": "% ID/g"}, {"measurement": "% ID/g, Small intestine", "setting": "[2]", "value": 11.70, "unit": "% ID/g"}, {"measurement": "% ID/g, Spleen", "setting": "[2]", "value": 0.40, "unit": "% ID/g"}, {"measurement": "% ID/g, Stomach", "setting": "[2]", "value": 0.88, "unit": "% ID/g"}, {"measurement": "% ID/g, Tail", "setting": "[2]", "value": 0.60, "unit": "% ID/g"}, {"measurement": "% ID/g, Thyroid", "setting": "[2]", "value": 0.24, "unit": "% ID/g"}, {"measurement": "% ID/g, Tumor", "setting": "[2]", "value": "0.43±0.06 % ID/g and 0.43 % ID/g"}, {"measurement": "signal intensity in tumor tissue vs healthy brain tissue", "setting": "[3]; [4]", "value": 15.7, "unit": "fold"}, {"measurement": "signal intensity in tumor tissue vs muscle tissue", "setting": "[3]; [4]", "value": 6.2, "unit": "fold"}, {"measurement": "reduction in intensity of the autoradiography signal in tumor tissue", "setting": "[3]; mice treated with olaparib", "value": 65, "unit": "%"}, {"measurement": "autoradiography signal, muscle", "setting": "[3]; with olaparib treatment", "value": "248±72", "unit": "AU"}, {"measurement": "autoradiography signal, tumor tissue", "setting": "[3]; with olaparib treatment", "value": "536±87", "unit": "AU"}, {"measurement": "autoradiography signal, muscle", "setting": "[3]; without olaparib treatment", "value": "192±20", "unit": "AU"}, {"measurement": "autoradiography signal, tumor tissue", "setting": "[3]; without olaparib treatment", "value": "1222±203", "unit": "AU"}]}
